Measured values published in US20240217967A1, “INDOLINE DERIVATIVES AS DDRS INHIBITORS” (CHIESI FARMACEUTICI S.P.A., priority 2021, published 2024).
Several values for one entry are separate records, joined by “and”; a condition that tells them apart may be missing. Equal values may be shown once. Read-outs that look alike come from different tables or passages of the source.

Legend:
DDR1 [1] = molecular target: T1, DDR1 (Homo sapiens, UniProt Q08345); test: DDR1 cell based assay (PathHunter U2OS DDR1, collagen II stimulation); conditions: U2OS-DDR1 cells, bovine Type II Collagen stimulation
T1 sequence (Q08345 19-913): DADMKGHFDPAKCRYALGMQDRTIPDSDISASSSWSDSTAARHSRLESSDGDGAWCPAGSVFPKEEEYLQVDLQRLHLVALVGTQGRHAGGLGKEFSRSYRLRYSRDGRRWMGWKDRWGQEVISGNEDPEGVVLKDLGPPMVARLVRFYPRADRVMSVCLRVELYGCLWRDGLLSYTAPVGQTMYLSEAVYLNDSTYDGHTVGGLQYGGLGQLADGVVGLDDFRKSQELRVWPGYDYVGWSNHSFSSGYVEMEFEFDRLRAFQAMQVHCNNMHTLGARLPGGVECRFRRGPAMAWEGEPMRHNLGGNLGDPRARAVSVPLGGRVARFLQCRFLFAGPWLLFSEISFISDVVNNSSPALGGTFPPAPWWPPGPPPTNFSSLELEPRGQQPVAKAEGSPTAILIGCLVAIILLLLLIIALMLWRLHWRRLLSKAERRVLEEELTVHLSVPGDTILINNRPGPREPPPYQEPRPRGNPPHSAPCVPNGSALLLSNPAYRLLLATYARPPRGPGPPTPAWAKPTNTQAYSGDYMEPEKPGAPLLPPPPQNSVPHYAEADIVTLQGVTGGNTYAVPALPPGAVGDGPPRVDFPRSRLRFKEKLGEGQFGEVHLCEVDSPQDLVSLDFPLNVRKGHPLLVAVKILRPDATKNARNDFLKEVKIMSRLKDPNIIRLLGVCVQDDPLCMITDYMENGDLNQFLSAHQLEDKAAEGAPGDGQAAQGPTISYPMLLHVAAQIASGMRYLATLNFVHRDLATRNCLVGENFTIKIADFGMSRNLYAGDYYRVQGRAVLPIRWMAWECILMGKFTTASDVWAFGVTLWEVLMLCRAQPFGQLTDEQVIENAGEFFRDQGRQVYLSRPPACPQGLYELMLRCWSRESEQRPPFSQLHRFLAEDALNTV
Procedure: The inhibition of DDR1 receptor activation by compounds was evaluated by PathHunter® U2OS DDR1 assay (Eurofins DiscoverX), according to the manufacturer's instructions. Briefly, U2OS-DDR1 cells were seeded in white 384-well plates at a density of 5000 cells/well and incubated for 2 hours at 37° C. and 5% CO2. Cells were then treated with compounds at different concentrations and incubated for 30 minutes, before stimulation with bovine Type II Collagen 20 μg/ml and incubation overnight at 37° C. and 5% CO2. PathHunter Detection Reagents were prepared according to the protocol provided by DiscoverX and 20 μl/well of this mix were added to each well. After incubating the plates for 1 hour at room temperature in the dark, luminescence signal was acquired with a plate reader. Raw data were normalized to vehicle control (0% for normalization) and positive control (100% for normalization; cells treated with 20 μg/ml collagen II) and IC50 parameters were calculated in GraphPad Prism 8.0 software, using sigmoidal dose-response curve fitting with variable slope.

DDR1 [2] = molecular target: T1, DDR1; test: DDR1 LanthaScreen Europium Kinase Binding assay
Procedure: (§1) DDR1 and DDR2 binding assays were performed using Life Technologies LanthaScreen™ Europium Kinase Binding assay. The compounds were incubated with 5 nM DDR1 (Carna Biosciences) or 5 nM DDR2 (Life Technologies) for 1 hour at room temperature in white 384-well OptiPlate (PerkinElmer), containing 20 nM or 10 nM Kinase Tracer 178 respectively and 2 nM Europium labelled anti-GST antibody (Life Technologies) in assay buffer (50 mM HEPES pH 7.5, 10 mM MgCI2, 1 mM EGTA and 0.01% BRIJ35). The ratio of fluorescence emission 665 nm/615 nm after excitation at 340 nm was obtained using the Tecan Spark 20M plate reader. IC50 values were determined in GraphPad Prism 7.0 software, using 4 parameter model: log(inhibitor) vs. response. IC50 values were converted in Ki using the Cheng-Prusoff equation (Ki=IC50/(1+[Tracer]/Kd).

DDR2 = molecular target: T2, DDR2 (Homo sapiens, UniProt Q16832); test: DDR2 LanthaScreen Europium Kinase Binding assay
T2 sequence (Q16832 22-855): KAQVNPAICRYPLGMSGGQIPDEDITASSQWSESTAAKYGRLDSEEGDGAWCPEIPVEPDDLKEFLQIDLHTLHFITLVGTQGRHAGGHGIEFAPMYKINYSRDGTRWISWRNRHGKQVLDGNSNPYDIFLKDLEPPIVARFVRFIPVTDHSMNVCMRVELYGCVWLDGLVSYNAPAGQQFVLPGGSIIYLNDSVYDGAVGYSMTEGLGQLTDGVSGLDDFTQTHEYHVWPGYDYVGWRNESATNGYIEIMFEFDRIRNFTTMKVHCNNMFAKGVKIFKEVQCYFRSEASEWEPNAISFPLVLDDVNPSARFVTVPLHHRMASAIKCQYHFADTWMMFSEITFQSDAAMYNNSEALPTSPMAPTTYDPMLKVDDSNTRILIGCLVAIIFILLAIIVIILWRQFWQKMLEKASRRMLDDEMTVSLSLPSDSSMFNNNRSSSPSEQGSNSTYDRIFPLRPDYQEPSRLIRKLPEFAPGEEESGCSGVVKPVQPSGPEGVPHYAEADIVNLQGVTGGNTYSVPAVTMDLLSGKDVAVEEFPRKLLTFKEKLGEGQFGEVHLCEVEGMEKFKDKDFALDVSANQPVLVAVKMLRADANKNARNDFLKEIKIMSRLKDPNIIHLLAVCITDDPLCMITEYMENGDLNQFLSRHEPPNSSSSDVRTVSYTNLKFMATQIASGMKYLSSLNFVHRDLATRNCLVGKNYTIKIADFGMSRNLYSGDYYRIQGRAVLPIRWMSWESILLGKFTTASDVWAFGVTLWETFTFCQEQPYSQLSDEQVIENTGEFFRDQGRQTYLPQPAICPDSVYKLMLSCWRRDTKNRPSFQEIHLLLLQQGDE
Procedure: as §1

[3] = binding affinity, IC50 converted in Ki using Cheng-Prusoff, read-out: Ki DDR1
[4] = binding affinity, IC50 converted in Ki using Cheng-Prusoff, read-out: Ki DDR2
[5] = binding assay, Ki from IC50 by Cheng-Prusoff, read-out: DDR1 Ki
[6] = binding assay, Ki from IC50 by Cheng-Prusoff, read-out: DDR2 Ki

Row | SMILES | IC50 (DDR1 [1]) [nM] | Ki (DDR1 [2]; [3]) [nM] | Ki (DDR2; [4]) [nM] | Ki (DDR1 [2]; [5]) | Ki (DDR2; [6]) [nM]
1 | O=C(Nc1cc(F)cc(C(F)(F)F)c1)c1ccc2c(c1)N(Cc1ccc3[nH]cnc3c1)CC2 [Example 62, 1-((1H-benzo[d]imidazol-5-yl)methyl)-N-(3-fluoro-5-(trifluoromethyl)phenyl)indoline-6-carboxamide] | 50 to 80 | 25 to 50 | 50 to 80 |  | 
2 | CN(C)Cc1ccc(NC(=O)c2ccc3c(c2)N(Cc2cnc4cnccn24)CC3)cc1C(F)(F)F [Example 48, N-(4-((dimethylamino)methyl)-3-(trifluoromethyl)phenyl)-1-(imidazo[1,2-a]pyrazin-3-ylmethyl)indoline-6-carboxamide] | 25 to 50 | < 25 | < 25 |  | 
3 | CN1CCN(Cc2cc(NC(=O)c3ccc4c(c3)N(Cc3cnc5ccccn35)CC4)cc(C(F)(F)F)c2)CC1 [Example 11, 1-(imidazo[1,2-a]pyridin-3-ylmethyl)-N-(3-((4-methylpiperazin-1-yl)methyl)-5-(trifluoromethyl)phenyl)indoline-6-carboxamide] | 50 to 80 | < 25 | < 25 |  | 
4 | CC1CN(Cc2cnc3[nH]ccc3c2)c2cc(C(=O)Nc3cccc(C(F)(F)F)c3)ccc21 (stereo not shown) [Example 32, 1-((1H-pyrrolo[2,3-b]pyridin-5-yl)methyl)-3-methyl-N-(3-(trifluoromethyl)phenyl)indoline-6-carboxamide] | < 25 | 25 to 50 | 25 to 50 |  | 
5 | Cc1n[nH]c2ncc(CN3CCc4ccc(C(=O)Nc5cc(C(=O)NCCN(C)C)cc(C(F)(F)F)c5)cc43)cc12 [Example 73, N-(3-((2-(dimethylamino)ethyl)carbamoyl)-5-(trifluoromethyl)phenyl)-1-((3-methyl-1H-pyrazolo[3,4-b]pyridin-5-yl)methyl)indoline-6-carboxamide] | < 25 | < 25 | < 25 |  | 
6 | CN1CCN(Cc2ccc(NC(=O)c3ccc4c(c3)N(Cc3cnn5ccncc35)CC4)cc2C(F)(F)F)CC1 [Example 86, N-(4-((4-methylpiperazin-1-yl)methyl)-3-(trifluoromethyl)phenyl)-1-(pyrazolo[1,5-a]pyrazin-3-ylmethyl)indoline-6-carboxamide] | 25 to 50 | < 25 | < 25 |  | 
7 | CC(C)(C)c1cc(NC(=O)c2ccc3c(c2)N(Cc2cnc4cnccn24)CC3)on1 [Example 79, N-(3-(tert-butyl)isoxazol-5-yl)-1-(imidazo[1,2-a]pyrazin-3-ylmethyl)indoline-6-carboxamide] | 50 to 80 | < 25 | < 25 |  | 
8 | CN1CCN(Cc2cc(C(=O)Nc3ccc4c(c3)N(C(=O)Cc3cnc5ccccn35)CC4)cc(C(F)(F)F)c2)CC1 [Example C2, N-(1-(2-(imidazo[1,2-a]pyridin-3-yl)acetyl)indolin-6-yl)-3-((4-methylpiperazin-1-yl)methyl)-5-(trifluoromethyl)benzamide] |  |  |  | 600 nM | 58000
9 | CC(C)(C)c1cc(NC(=O)c2ccc3c(c2)N(Cc2cnc4[nH]ncc4c2)CC3)n(-c2ccccc2)n1 [Example 40, 1-((1H-pyrazolo[3,4-b]pyridin-5-yl)methyl)-N-(3-(tert-butyl)-1-phenyl-1H-pyrazol-5-yl)indoline-6-carboxamide] | 25 to 50 | 25 to 50 | < 25 |  | 
10 | CN(C)Cc1c[nH]c2ncc(CN3CCc4ccc(C(=O)Nc5cncc(C(F)(F)F)c5)cc43)cc12 [Example 83, 1-((3-((dimethylamino)methyl)-1H-pyrrolo[2,3-b]pyridin-5-yl)methyl)-N-(5-(trifluoromethyl)pyridin-3-yl)indoline-6-carboxamide] | < 25 | < 25 | < 25 |  | 
11 | O=C(Nc1cc(OCCN2CCCC2)cc(C(F)(F)F)c1)c1ccc2c(c1)N(Cc1cnc3cnccn13)CC2 [Example 52, 1-(imidazo[1,2-a]pyrazin-3-ylmethyl)-N-(3-(2-(pyrrolidin-1-yl)ethoxy)-5-(trifluoromethyl)phenyl)indoline-6-carboxamide] | 50 to 80 | < 25 | < 25 |  | 
12 | CN1CCN(Cc2ccc(NC(=O)c3ccc4c(c3)N(Cc3cnc5ccnn5c3)CC4)cc2C(F)(F)F)CC1 [Example 76, N-(4-((4-methylpiperazin-1-yl)methyl)-3-(trifluoromethyl)phenyl)-1-(pyrazolo[1,5-a]pyrimidin-6-ylmethyl)indoline-6-carboxamide] | < 25 | < 25 | < 25 |  | 
13 | O=C(Nc1cccc(C(F)(F)F)c1)c1ccc2c(c1)N(Cc1cnc3cnccn13)CC2 [Example 42, 1-(imidazo[1,2-a]pyrazin-3-ylmethyl)-N-(3-(trifluoromethyl)phenyl)indoline-6-carboxamide] | < 25 | < 25 | < 25 |  | 
14 | CN1CCC(Oc2ccc(NC(=O)c3ccc4c(c3)N(Cc3cnc5cnccn35)CC4)cc2C(F)(F)F)CC1 [Example 54, 1-(imidazo[1,2-a]pyrazin-3-ylmethyl)-N-(4-((1-methylpiperidin-4-yl)oxy)-3-(trifluoromethyl)phenyl)indoline-6-carboxamide] | 50 to 80 | < 25 | < 25 |  | 
15 | CN1CCN(Cc2cc(C(=O)Nc3ccc4c(c3)N(Cc3cnc5cnccn35)CC4)cc(C(F)(F)F)c2)CC1 [Example 18, N-(1-(imidazo[1,2-a]pyrazin-3-ylmethyl)indolin-6-yl)-3-((4-methylpiperazin-1-yl)methyl)-5-(trifluoromethyl)benzamide] | 25 to 50 | < 25 | < 25 |  | 
16 | CN1CCN(Cc2cc(NC(=O)c3ccc4c(c3)N(Cc3cnc5cnccn35)CC4)cc(C(F)(F)F)c2)CC1 [Example 10, 1-(imidazo[1,2-a]pyrazin-3-ylmethyl)-N-(3-((4-methylpiperazin-1-yl)methyl)-5-(trifluoromethyl)phenyl)indoline-6-carboxamide] | 25 to 50 | < 25 | < 25 |  | 
17 | O=C(Nc1cc(F)cc(C(F)(F)F)c1)c1ccc2c(c1)N(Cc1cnc3cnccn13)CC2 [Example 41, N-(3-fluoro-5-(trifluoromethyl)phenyl)-1-(imidazo[1,2-a]pyrazin-3-ylmethyl)indoline-6-carboxamide] | 25 to 50 | < 25 | < 25 |  | 
18 | CC1CN(Cc2cnc3[nH]ncc3c2)c2cc(C(=O)Nc3cccc(C(F)(F)F)c3)ccc21 (racemic) [Example 30, 1-((1H-pyrazolo[3,4-b]pyridin-5-yl)methyl)-3-methyl-N-(3-(trifluoromethyl)phenyl)indoline-6-carboxamide] | < 25 | < 25 | < 25 |  | 
19 | Cc1n[nH]c2ncc(CN3CCc4ccc(C(=O)Nc5cc(CN(C)C)nc(C(F)(F)F)c5)cc43)cc12 [Example 82, N-(2-((dimethylamino)methyl)-6-(trifluoromethyl)pyridin-4-yl)-1-((3-methyl-1H-pyrazolo[3,4-b]pyridin-5-yl)methyl)indoline-6-carboxamide] | < 25 | < 25 | < 25 |  | 
20 | CN1CCN(Cc2cc(NC(=O)c3ccc4c(c3)N(C(=O)Cc3cnc5ccccn35)CC4)cc(C(F)(F)F)c2)CC1 [Example C1, 1-(2-(imidazo[1,2-a]pyridin-3-yl)acetyl)-N-(3-((4-methylpiperazin-1-yl)methyl)-5-(trifluoromethyl)phenyl)indoline-6-carboxamide] |  |  |  | > 600 nM and 58000 nM | 58000
